Laboratory results as given in EP0684822B1, “CARBOCYCLIC DEOXYGUANOSINE ANALOGS FOR THE TREATMENT OF VIRAL INFECTIONS” (SOUTHERN RESEARCH INSTITUTE, priority 1993, dated 1994).
Converted amounts (≈) assume the structure as drawn.

Assays:
[1] = system: HSV-1 (strain 377, TK+); assay: Antiviral activity against HSV-1; type: cell-based; details: for VR / EC50: HSV-1, range of tests; for EC50: Human alphaherpesvirus 1, read-out: Mic50
Procedure: (§1) D-2'-CdG and L-2'-CdG were tested, alongside D,L-2'-CdG, against both HSV-1 (strain 377, TK+; obtained from Dr. Earl Kern, University of Alabama) and HSV-2 (strain MS, TK+; also obtained from Dr. Earl Kern). In these tests (Table 5), Ara-A and acyclovir (ACV) were the positive control drugs. In four tests vs. HSV-1, the antiviral activity (VR) and potency (MIC50) of D-2'-CdG were approximately the same as those of racemic 2-CdG. L-2'-CdG was only modestly active.

[2] = target: T1, HSV-1 TK (Human herpesvirus 1, UniProt P0DTH5); assay: Competitive inhibition of [3H]-thymidine phosphorylation by partially purified HSV-1 TK; type: biochemical
T1 construct: HSV thymidine kinase (HSV TK) was isolated from HELA (BU25) cells infected with the SW148 strain of HSV-1; made in house; host or cells: HeLa (BU25) thymidine-kinase-deficient cells infected with HSV-1 strain S148/SW148
Procedure: The Ki's were determined from a plot of the slope of each line versus the concentration of the competitor (D-, L, or D,L-2'CdG) and are summarized below: TABLE 2

[3] = system: HSV-2 (strain MS, TK+); assay: Antiviral activity against HSV-2; type: cell-based; details: HSV-2
Procedure: as §1
These compounds were tested against HSV-2(TK^+). The VR of ACV was somewhat higher than the VR values of D-2'-CdG and D,L-2'-CdG, but the values of MIC50 of the two forms of 2'-CdG were lower. In addition, experiments comparing the antiviral activity D-2'-CdG with acyclovir against HSV-1 in human foreskin fibroblasts have shown an even greater potency, in favor of D-2'-CdG.

[4] = system: CCRF-CEM cells; assay: Phosphorylation in uninfected CCRF-CEM cells, effects of dCyd and mycophenolic acid; type: cell-based; details: for increase in the phosphates in the presence of mycophenolic acid / reduction of the amount of phosphates in the presence of dCyd: Fig. 6; for reduction of the amount of phosphates in the presence of dCyd: calculated from the radioactivity in the peaks
Procedure: While these findings are similar to those obtained with the isolated viral kinase, they differ from the resulted with the isolated enzyme in that relatively more di- and triphosphate were formed from L-2'CdG.
Identity of the cellular enzyme(s) responsible for the phosphorylation of the enantiomers of 2'CdG. […] 36:291, 1989). To determine if dCyd kinase was involved, studies were carried out in which cells were indubated with D- or L-2'CdG and dCyd, and the formation of phosphates was monitored by HPLC. […] The presence of mycophenolic acid produced an increase in the phosphates of D- or L-2'CdG of 2.5-fold and 1.4-fold, respectively.

[5] = target: T2, HSV-TK extract (Human herpesvirus 1, UniProt P0DTH5); assay: Phosphorylated products formed by HSV-TK extract, SAX HPLC; type: biochemical, HSV-1; details: for DPM di / DPM mono / DPM nucleoside / DPM total / DPM tri: 10 µM [3H] compound, 2 hours; for major phosphorylated derivative: 50 µM, 60 minutes at 37°C, Fig. 3
T2 construct: HSV thymidine kinase (HSV TK) was isolated from HELA (BU25) cells infected with the SW148 strain of HSV-1; made in house; host or cells: HeLa (BU25) thymidine-kinase-deficient cells infected with HSV-1 strain S148/SW148
Procedure: HSV thymidine kinase activity was measured in 200 µl volumes containing HSV-TK extract obtained as described previously (Belzarini et al., supra), 5.0 mM ATP, 5 mM MgCl2, 9 mM potassium fluoride, 11.2 µg phosphoenol pyruvate, 5 µg of pyruvate kinase, 10 mM β-mercaptoethanol and either 50 µM [3H]-D-, L, or no drug for 60 minutes at 37°C. The reaction was stopped with perchloric acid (PCA), neutralized with potassium bicarbonate, and the reaction products were analyzed by SAX HPLC. The UV absorption spectra of selected peaks were determined with a rapid spectral detector (LKB, Gaithersburg, MD). […] The amount of monophosphate derived from L-2'CdG was about the same as the amount of triphosphate derived from D-2'CdG, and confirmed the results of the disk assay.
HSV extracts were also incubated with 10 µM of either [^3H]-D- or L-2'Cdg, as described above, to measure the metabolism of these entantiomers. After 2 hours the reaction was stopped with perchloric acid (PCA), neutralized with potassium bicarbonate, and the acid-soluble metabolites were separated using SAX HPLC as described above. The results are summarized below.: TABLE 3

T2 sequence (P0DTH5 whole entry): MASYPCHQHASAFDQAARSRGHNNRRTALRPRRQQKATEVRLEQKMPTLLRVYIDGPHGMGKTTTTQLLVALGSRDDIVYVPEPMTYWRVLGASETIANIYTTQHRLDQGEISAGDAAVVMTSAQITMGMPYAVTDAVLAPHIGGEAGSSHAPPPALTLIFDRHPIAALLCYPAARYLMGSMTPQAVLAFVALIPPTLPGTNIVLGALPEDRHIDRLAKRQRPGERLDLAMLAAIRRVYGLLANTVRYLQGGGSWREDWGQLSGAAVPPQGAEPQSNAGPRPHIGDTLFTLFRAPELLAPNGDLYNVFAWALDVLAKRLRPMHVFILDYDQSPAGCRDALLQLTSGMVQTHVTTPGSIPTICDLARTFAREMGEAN
T1 sequence (P0DTH5 whole entry): as above

Row | Structure (SMILES) | VR [1] | EC50 [1] [mg/L] | potency relative to ACV ([1]; more potent than ACV) | Ki [2] [µM] | VR [3] | EC50 ([3]; Human alphaherpesvirus 2, read-out: Mic50) [mg/L] | increase in the phosphates in the presence of mycophenolic acid [4] [fold] | reduction of the amount of phosphates in the presence of dCyd [4] | predominant metabolite ([4]; uninfected CEM cells, Fig. 5) | DPM di [5] [DPM] | DPM mono [5] [DPM] | DPM nucleoside [5] [DPM] | DPM total [5] [DPM] | DPM tri [5] [DPM] | major phosphorylated derivative [5] | total amount of phosphates formed, relative to D-2'CdG ([4]; uninfected CEM cells, Fig. 5)
1 | Nc1nc2c(ncn2[C@@H]2C[C@H](CO)[C@@H](O)C2)c(=O)[nH]1 [D-2'-CdG, [1R,3S,4R-(1α,3β,4α)]-D-2-Amino-1,9-dihydro-9-[3-hydroxy-4-(hydroxymethyl)cyclopentyl]-6H-purin-6-one] | 4.8-6.3 | 0.1 to 0.3 (≈ 0.377 to 1.13 µM) | 5-10 times | 2.1 | 3.8 | 0.7 (≈ 2.64 µM) | 2.5 | 80-90% | the triphosphate | 2427 | 2138 | 38555 | 128000 | 85073 | the triphosphate | 
2 | Nc1nc2c(ncn2[C@H]2C[C@@H](CO)[C@H](O)C2)c(=O)[nH]1 [L-2'-CdG, [1S,3R,4S-(1α,3β,4α)]-L-2-Amino-1,9-dihydro-9-[3-hydroxy-4-(hydroxymethyl)cyclopentyl]-6H-purin-6-one] | 0.8-2.4 | 39 to 257 (≈ 147 to 969 µM) |  | 3.4 | 0 |  | 1.4 | 80-90% | the monophosphate | 2050 | 115000 | 40944 | 158000 | 410 | primarily to the monophosphate form | about twice that formed from D-2'CdG
